Measured values as given in ChEMBL document CHEMBL2074443, “Association of tamoxifen biliary excretion rate with prior tamoxifen exposure and increased mdr1b expression” (Biochem Pharmacol, 2000).

Target: ATP-dependent translocase ABCB1 (Rattus norvegicus, UniProt P43245)
Assay: TP_TRANSPORTER: RT-PCR in vivo, liver of Lewis rat
Type: functional, organism-based

ATP-dependent translocase ABCB1, sequence (P43245 whole entry): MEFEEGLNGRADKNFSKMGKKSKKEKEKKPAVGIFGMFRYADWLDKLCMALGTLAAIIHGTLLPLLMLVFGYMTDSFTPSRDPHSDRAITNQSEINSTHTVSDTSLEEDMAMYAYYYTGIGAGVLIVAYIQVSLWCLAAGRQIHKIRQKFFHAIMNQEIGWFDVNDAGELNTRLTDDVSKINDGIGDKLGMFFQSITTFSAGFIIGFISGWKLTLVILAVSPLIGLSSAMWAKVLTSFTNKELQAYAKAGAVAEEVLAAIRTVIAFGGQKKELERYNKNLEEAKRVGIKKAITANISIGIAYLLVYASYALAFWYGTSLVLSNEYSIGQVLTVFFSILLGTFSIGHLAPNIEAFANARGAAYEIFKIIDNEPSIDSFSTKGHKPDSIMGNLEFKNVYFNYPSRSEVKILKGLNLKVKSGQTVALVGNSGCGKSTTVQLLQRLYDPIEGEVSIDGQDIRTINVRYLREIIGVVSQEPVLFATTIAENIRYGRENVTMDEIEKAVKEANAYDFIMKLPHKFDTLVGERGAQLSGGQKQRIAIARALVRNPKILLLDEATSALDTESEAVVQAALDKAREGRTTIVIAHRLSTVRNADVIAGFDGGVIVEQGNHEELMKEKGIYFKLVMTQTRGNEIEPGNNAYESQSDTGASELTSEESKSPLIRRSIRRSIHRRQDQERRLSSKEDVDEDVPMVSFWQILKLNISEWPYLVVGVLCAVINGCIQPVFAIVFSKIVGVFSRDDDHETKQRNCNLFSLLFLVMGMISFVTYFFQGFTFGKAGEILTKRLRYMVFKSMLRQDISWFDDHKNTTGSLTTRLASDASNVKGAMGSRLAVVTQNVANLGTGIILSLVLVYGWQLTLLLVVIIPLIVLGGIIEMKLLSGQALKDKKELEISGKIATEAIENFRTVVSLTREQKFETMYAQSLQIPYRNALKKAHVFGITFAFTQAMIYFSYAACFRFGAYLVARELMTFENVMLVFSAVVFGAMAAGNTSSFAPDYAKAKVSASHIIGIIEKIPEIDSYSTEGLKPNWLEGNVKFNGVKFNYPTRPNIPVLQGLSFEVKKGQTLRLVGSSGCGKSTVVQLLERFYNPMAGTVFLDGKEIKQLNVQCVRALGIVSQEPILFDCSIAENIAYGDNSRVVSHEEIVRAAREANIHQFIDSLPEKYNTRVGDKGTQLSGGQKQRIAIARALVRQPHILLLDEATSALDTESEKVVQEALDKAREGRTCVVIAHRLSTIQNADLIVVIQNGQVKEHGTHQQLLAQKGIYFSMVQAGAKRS

Which Activity does the source give for `CC/C(=C(\c1ccccc1)c1ccc(OCCN(C)C)cc1)c1ccccc1` [TAMOXIFEN] here?
The Activity was “inducer [+]”.
